Data set [1] is described as follows: Toxicity in PC-3 tumour-bearing NSG mice (body weight, liver weight, WCC). The format is in vivo. The following applies: after 2 weeks of administration. The method, then: At Day 30 mice were sacrificed and liver weight measurements were performed. Liver weight was normalised to control group (healthy group no treatment). *: p<0.05 vs. control group (ANOVA). Data is expressed as Mean±SE (n=7).

For data set [2] the following is noted: in vivo; cited from earlier work.
Data set [3] concerns MDA-MB-231 metastatic triple negative breast cancer cell. In words: MDA-MB-231 breast tumour xenograft, free agents, tumour weight. The class given is in vivo, Balb/c nude mice. The following applies: 5 mg/kg single agent, breast tumours. The method, then: (§1) Tumour weight at week 5. Columns, mean of three experiments performed in triplicate. Bars, SE. * p<0.05 versus control.
(§2) Mice and tumours were weighed.
(§3) Data are presented as the mean values of at least three independent experiments normalised to control±standard error of the mean (SE) calculated using OriginPro. Statistical significance between two groups was conducted by unpaired Student's t test. p value of <0.05 is considered statistically significant.

In data set [4] the target is T1, SK1 (Homo sapiens, UniProt Q9NYA1).
T1 construct: endogenous in cells; host or cells: PC-3 cells (obtained from DSMZ)
In words: SK1 activity by radiolabelling in PC-3 cells. The format is cell-based. The following applies: PC-3 cells treated for 48 h. The procedure:
(D) PC-3 cells were treated for 48 h as indicated in figure and SK1 activity was measured by radiolabelling. Columns, points, percentage relative to the control. Data is expressed as Mean±SE (n=3). * p<0.05 versus control, ** p<0.05 versus free drug treatment (DTX+FTY). (E) Cytotoxicity of free drugs was assessed using the MTT assay (48 hr: dark shading; 72 hr: light shading; 96 hr: no shading); the final two columns showing sequential administration of docetaxel on day 1 (D1) followed by FTY720 on day 2 (D2), or administration of FTY720 on day 1 (D1) followed by docetaxel on day 2 (D2).
SK1 assay was performed using radiolabelling as previously described (Alshaker et al (2014), above, plus: Alshaker, H. et al. Sphingosine kinase 1 contributes to leptin-induced STAT3 phosphorylation through IL-6/gp130 transactivation in oestrogen receptor-negative breast cancer. Breast Cancer Res Treat 149, 59-67, doi:10.1007/s10549-014-3228-8 (2015); and Pchejetski, D. et al. The involvement of sphingosine kinase 1 in LPS-induced Toll-like receptor 4-mediated accumulation of HIF-1alpha protein, activation of ASK1 and production of the pro-inflammatory cytokine IL-6. Immunol Cell Biol 89, 268-274, doi:10.1038/icb.2010.91 (2011)), in conditions favouring SK1 activity and inhibiting SK2 activity.

Data set [5] deals with PC-3 metastatic prostate cancer cells. The data set is described as follows: PC-3 prostate tumour xenograft, free agents, tumour weight. The following applies: 5 mg/kg single agent, prostate tumours. The class given is in vivo, Balb/c nude mice. The method, then:
as §1, §2, §3

The structures appear in SMILES notation.

Usually half-life stands for the time needed for the level to fall by half in the phase considered.

T1 sequence (Q9NYA1 whole entry): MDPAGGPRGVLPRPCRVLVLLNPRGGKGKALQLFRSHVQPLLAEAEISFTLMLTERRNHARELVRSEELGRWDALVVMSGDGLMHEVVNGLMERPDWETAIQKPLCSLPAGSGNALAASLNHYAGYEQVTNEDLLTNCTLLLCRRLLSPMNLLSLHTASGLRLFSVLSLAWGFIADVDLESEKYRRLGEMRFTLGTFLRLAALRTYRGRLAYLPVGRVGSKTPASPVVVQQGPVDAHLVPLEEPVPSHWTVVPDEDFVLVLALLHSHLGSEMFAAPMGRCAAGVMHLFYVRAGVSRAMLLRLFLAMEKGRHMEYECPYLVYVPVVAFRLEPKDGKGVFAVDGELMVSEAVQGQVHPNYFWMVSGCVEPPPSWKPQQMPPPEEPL

Consider `CCCCCCCCc1ccc(CCC(N)(CO)CO)cc1` [FTY720, fingolimod], for which the white cell count result in data set [1] is “significantly reduced white cell count”. In addition, the half-life in data set [2] is 140 to 220 h.
As to `CC(=O)O[C@@]12CO[C@@H]1C[C@H](O)[C@@]1(C)C(=O)[C@H](O)C3=C(C)[C@@H](OC(=O)[C@H](O)[C@@H](NC(=O)OC(C)(C)C)c4ccccc4)C[C@@](O)([C@@H](OC(=O)c4ccccc4)[C@H]21)C3(C)C` [docetaxel], the “tumour weight reduction, individual drug treatment” value in data set [3] and in data set [5] was “did not reduce the tumour weight significantly” each time. In addition, the circulation half-life in data set [2] is around 17 h. The SK1 activity result in data set [4] is reported as “insignificant increase”.
In the case of `Oc1ccc(Nc2nc(-c3ccc(Cl)cc3)cs2)cc1` [SK1-II], the “tumour weight reduction, individual drug treatment” value in data set [5] is “did not reduce the tumour weight significantly”.

(Values after patent publication US20200121807A1, “Anti-Cancer Agents” (UEA ENTERPRISES LIMITED, priority 2016, published 2020).)
